Test results taken from patent US20230044633A1, “OPTICAL BASED METHODS FOR DETERMINING ANTIMICROBIAL DOSING REGIMENS” (University of Houston System, priority 2019, published 2023).
Converted amounts (≈) assume the structure as drawn.

Legend:
[1] = system: Acinetobacter baumannii (AB), ATCC BAA747; test: Susceptibility (MIC); assay type: cell-based; conditions: ATCCBAA747, wild type AB ATCC BAA747, previously found
Description: Microorganism. A laboratory reference wild type Acinetobacter baumannii (AB), ATCC BAA747, was utilized in the study. The bacteria were stored at −70° C. in Protect® vials. Before the experiment, the bacteria were subcultured at least twice on 5% blood agar plates for 24 hours at 35° C. and fresh colonies were used.

[2] = system: A. baumannii 1261 (clinical isolate); test: Clinical isolate exposed to antibiotic concentration combinations in 4×4 array, tracked over 24 h on 216Dx; assay type: cell-based, Acinetobacter baumannii; conditions: clinical isolate of A. baumannii (multidrug resistant)
Description: FIG. 3. A. baumannii 1261 was exposed to 16 different concentration combinations of levofloxacin (L) and amikacin (A). Each sequence of points represents the time course of the bacterial population (baseline inoculum approximately 2-5×10^5 CFU/ml) exposed to one levofloxacin/amikacin concentration combination (e.g., levofloxacin 20 mg/l+amikacin 30 mg/ is shown in hollow squares). Bacteria exposed to drugs with no activity produce profiles that superimpose on those from placebo controls; antimicrobial activity manifests as a delay or absence of growth.
Ineffective antibiotics may have acceptable activity when combined. A clinical isolate of A. baumannii was exposed to different antibiotic concentration combinations in a 4×4 array, and the bacterial burden was tracked over 24 h using the prototype technical platform 216Dx. While the isolate is resistant to levofloxacin, amikacin and cefepime (multidrug resistant), bacterial growth was delayed in selected combinations (FIG. 3) and the profiles were reasonably captured by the mathematical modeling framework (1) shown above (FIG. 1, right).

Row | MIC [1] | SMILES | susceptibility phenotype of the isolate [2]
1 | 0.25 µg/mL (≈ 0.692 µM) | C[C@H]1COc2c(N3CCN(C)CC3)c(F)cc3c(=O)c(C(=O)O)cn1c23 [LVX, Levofloxacin] | 
2 |  | CO/N=C(\C(=O)N[C@@H]1C(=O)N2C(C(=O)[O-])=C(C[N+]3(C)CCCC3)CS[C@H]12)c1csc(N)n1 [cefepime] | resistant
3 |  | NCC[C@H](O)C(=O)N[C@@H]1C[C@H](N)[C@@H](O[C@H]2O[C@H](CN)[C@@H](O)[C@H](O)[C@H]2O)[C@H](O)[C@H]1O[C@H]1O[C@H](CO)[C@@H](O)[C@H](N)[C@H]1O [amikacin] | resistant
